Measured values from publication PMC6117091, “The C. difficile clnRAB operon initiates adaptations to the host environment in response to LL-37” (PLoS Pathogens, 2018).

System: gene expression in C. difficile 630Δerm
Assay: RNA-seq, genes differentially expressed in LL-37

SMILES: CC[C@H](C)[C@H](NC(=O)[C@H](CCCCN)NC(=O)[C@H](CCC(=O)O)NC(=O)[C@H](CCCCN)NC(=O)[C@H](CO)NC(=O)[C@H](CCCCN)NC(=O)[C@H](CCCNC(=N)N)NC(=O)[C@H](Cc1ccccc1)NC(=O)[C@H](Cc1ccccc1)NC(=O)[C@H](CC(=O)O)NC(=O)CNC(=O)[C@H](CC(C)C)NC(=O)[C@@H](N)CC(C)C)C(=O)NCC(=O)N[C@@H](CCCCN)C(=O)N[C@@H](CCC(=O)O)C(=O)N[C@@H](Cc1ccccc1)C(=O)N[C@@H](CCCCN)C(=O)N[C@@H](CCCNC(=N)N)C(=O)N[C@H](C(=O)N[C@H](C(=O)N[C@@H](CCC(N)=O)C(=O)N[C@@H](CCCNC(=N)N)C(=O)N[C@H](C(=O)N[C@@H](CCCCN)C(=O)N[C@@H](CC(=O)O)C(=O)N[C@@H](Cc1ccccc1)C(=O)N[C@@H](CC(C)C)C(=O)N[C@@H](CCCNC(=N)N)C(=O)N[C@@H](CC(N)=O)C(=O)N[C@@H](CC(C)C)C(=O)N[C@H](C(=O)N1CCC[C@H]1C(=O)N[C@@H](CCCNC(=N)N)C(=O)N[C@H](C(=O)N[C@@H](CCC(=O)O)C(=O)N[C@@H](CO)C(=O)O)[C@@H](C)O)C(C)C)[C@@H](C)CC)C(C)C)[C@@H](C)CC [LL-37]
- CD630_18890 fold change in LL-37 (2 µg/ml LL-37, BHIS): 4.54
- CD630_18900 fold change in LL-37 (2 µg/ml LL-37, BHIS): 3.60
- CD630_19120 (eutA) fold change in LL-37 (2 µg/ml LL-37, BHIS): 0.20
- CD630_19150 (eutL) fold change in LL-37 (2 µg/ml LL-37, BHIS): 0.21
- CD630_19180 (eutK) fold change in LL-37 (2 µg/ml LL-37, BHIS): 0.40
- CD630_19210 fold change in LL-37 (2 µg/ml LL-37, BHIS): 0.48
- CD630_19220 (eutN) fold change in LL-37 (2 µg/ml LL-37, BHIS): 0.25
- CD630_19440 fold change in LL-37 (2 µg/ml LL-37, BHIS): 2.03
- CD630_19670 fold change in LL-37 (2 µg/ml LL-37, BHIS): 2.01
- CD630_20140 (ilvD) fold change in LL-37 (2 µg/ml LL-37, BHIS): 2.90
- CD630_20160 fold change in LL-37 (2 µg/ml LL-37, BHIS): 0.26
- CD630_20270 fold change in LL-37 (2 µg/ml LL-37, BHIS): 2.69
- CD630_20280 (racX) fold change in LL-37 (2 µg/ml LL-37, BHIS): 2.39
- CD630_20451 fold change in LL-37 (2 µg/ml LL-37, BHIS): 0.46
- CD630_20751 fold change in LL-37 (2 µg/ml LL-37, BHIS): 2.21
- CD630_20910 fold change in LL-37 (2 µg/ml LL-37, BHIS): 2.49
- CD630_21270 fold change in LL-37 (2 µg/ml LL-37, BHIS): 2.34
- CD630_21430 fold change in LL-37 (2 µg/ml LL-37, BHIS): 0.48
- CD630_21510 fold change in LL-37 (2 µg/ml LL-37, BHIS): 0.48
- CD630_21640 (ldh) fold change in LL-37 (2 µg/ml LL-37, BHIS): 2.95
- CD630_21710 fold change in LL-37 (2 µg/ml LL-37, BHIS): 0.34
- CD630_21930 (cwp24) fold change in LL-37 (2 µg/ml LL-37, BHIS): 2.54
- CD630_22010 fold change in LL-37 (2 µg/ml LL-37, BHIS): 0.40
- CD630_22330 (asrA) fold change in LL-37 (2 µg/ml LL-37, BHIS): 2.43
- CD630_23090 fold change in LL-37 (2 µg/ml LL-37, BHIS): 2.29
- CD630_23300 (xpt) fold change in LL-37 (2 µg/ml LL-37, BHIS): 0.49
- CD630_23310 (mtlD) fold change in LL-37 (2 µg/ml LL-37, BHIS): 0.12
- CD630_23320 (mtlF) fold change in LL-37 (2 µg/ml LL-37, BHIS): 0.12
- CD630_23330 (mtlR) fold change in LL-37 (2 µg/ml LL-37, BHIS): 0.14
- CD630_23340 (mtlA) fold change in LL-37 (2 µg/ml LL-37, BHIS): 0.15
- CD630_23380 (4hbD) fold change in LL-37 (2 µg/ml LL-37, BHIS): 12.95
- CD630_23390 (cat2) fold change in LL-37 (2 µg/ml LL-37, BHIS): 13.27
- CD630_23400 fold change in LL-37 (2 µg/ml LL-37, BHIS): 13.14
- CD630_23410 (abfD) fold change in LL-37 (2 µg/ml LL-37, BHIS): 14.81
- CD630_23420 (sucD) fold change in LL-37 (2 µg/ml LL-37, BHIS): 12.71
- CD630_23430 (cat1) fold change in LL-37 (2 µg/ml LL-37, BHIS): 11.85
- CD630_23440 fold change in LL-37 (2 µg/ml LL-37, BHIS): 10.85
- CD630_23700 (nadC) fold change in LL-37 (2 µg/ml LL-37, BHIS): 0.42
- CD630_23710 (nadB) fold change in LL-37 (2 µg/ml LL-37, BHIS): 0.40
- CD630_23720 (nadA) fold change in LL-37 (2 µg/ml LL-37, BHIS): 0.40
- CD630_23790 (buk2) fold change in LL-37 (2 µg/ml LL-37, BHIS): 3.13
- CD630_23800 (iorB) fold change in LL-37 (2 µg/ml LL-37, BHIS): 10.81
- CD630_23810 (iorA) fold change in LL-37 (2 µg/ml LL-37, BHIS): 13.66
- CD630_23820 fold change in LL-37 (2 µg/ml LL-37, BHIS): 13.76
- CD630_24291 fold change in LL-37 (2 µg/ml LL-37, BHIS): 0.23
- CD630_24610 (dnaK) fold change in LL-37 (2 µg/ml LL-37, BHIS): 0.48
- CD630_24620 (grpE) fold change in LL-37 (2 µg/ml LL-37, BHIS): 0.41
- CD630_24630 (hrcA) fold change in LL-37 (2 µg/ml LL-37, BHIS): 0.49
- CD630_25090 fold change in LL-37 (2 µg/ml LL-37, BHIS): 0.40
- CD630_25100 fold change in LL-37 (2 µg/ml LL-37, BHIS): 0.48
- CD630_25110 fold change in LL-37 (2 µg/ml LL-37, BHIS): 0.48
- CD630_25150 fold change in LL-37 (2 µg/ml LL-37, BHIS): 0.38
- CD630_25160 (ansB) fold change in LL-37 (2 µg/ml LL-37, BHIS): 0.44
- CD630_25171 fold change in LL-37 (2 µg/ml LL-37, BHIS): 2.04
- CD630_25560 fold change in LL-37 (2 µg/ml LL-37, BHIS): 4.24
- CD630_26140 fold change in LL-37 (2 µg/ml LL-37, BHIS): 0.12
- CD630_26640 (murE) fold change in LL-37 (2 µg/ml LL-37, BHIS): 0.35
- CD630_26650 fold change in LL-37 (2 µg/ml LL-37, BHIS): 0.43
- CD630_26691 fold change in LL-37 (2 µg/ml LL-37, BHIS): 0.50
- CD630_26700 fold change in LL-37 (2 µg/ml LL-37, BHIS): 0.43
- CD630_26710 fold change in LL-37 (2 µg/ml LL-37, BHIS): 0.38
- CD630_26820 (pfo) fold change in LL-37 (2 µg/ml LL-37, BHIS): 2.03
- CD630_26860 fold change in LL-37 (2 µg/ml LL-37, BHIS): 0.41
- CD630_26870 fold change in LL-37 (2 µg/ml LL-37, BHIS): 0.46
- CD630_27090 fold change in LL-37 (2 µg/ml LL-37, BHIS): 2.37
- CD630_27250 fold change in LL-37 (2 µg/ml LL-37, BHIS): 2.07
- CD630_27491 fold change in LL-37 (2 µg/ml LL-37, BHIS): 0.38
- CD630_27500 (agrB) fold change in LL-37 (2 µg/ml LL-37, BHIS): 0.49
- CD630_27640 fold change in LL-37 (2 µg/ml LL-37, BHIS): 0.38
- CD630_27840 (cwp6) fold change in LL-37 (2 µg/ml LL-37, BHIS): 2.30
- CD630_27880 fold change in LL-37 (2 µg/ml LL-37, BHIS): 0.48
- CD630_28770 (fhuB) fold change in LL-37 (2 µg/ml LL-37, BHIS): 0.35
- CD630_28780 (fhuD) fold change in LL-37 (2 µg/ml LL-37, BHIS): 0.30
- CD630_29320 fold change in LL-37 (2 µg/ml LL-37, BHIS): 0.30
- CD630_29330 fold change in LL-37 (2 µg/ml LL-37, BHIS): 0.50
- CD630_29341 fold change in LL-37 (2 µg/ml LL-37, BHIS): 0.29
- CD630_29360 fold change in LL-37 (2 µg/ml LL-37, BHIS): 0.44
- CD630_29400 fold change in LL-37 (2 µg/ml LL-37, BHIS): 0.42
- CD630_29420 fold change in LL-37 (2 µg/ml LL-37, BHIS): 0.41
- CD630_29430 fold change in LL-37 (2 µg/ml LL-37, BHIS): 0.45
- CD630_29440 fold change in LL-37 (2 µg/ml LL-37, BHIS): 0.44
- CD630_29470 fold change in LL-37 (2 µg/ml LL-37, BHIS): 0.30
- CD630_29490 fold change in LL-37 (2 µg/ml LL-37, BHIS): 0.46
- CD630_29620 fold change in LL-37 (2 µg/ml LL-37, BHIS): 2.13
- CD630_29710 (bioY) fold change in LL-37 (2 µg/ml LL-37, BHIS): 0.45
- CD630_30250 fold change in LL-37 (2 µg/ml LL-37, BHIS): 0.47
- CD630_30260 fold change in LL-37 (2 µg/ml LL-37, BHIS): 0.45
- CD630_30270 fold change in LL-37 (2 µg/ml LL-37, BHIS): 0.25
- CD630_30340 fold change in LL-37 (2 µg/ml LL-37, BHIS): 0.38
- CD630_30360 fold change in LL-37 (2 µg/ml LL-37, BHIS): 0.39
- CD630_30720 fold change in LL-37 (2 µg/ml LL-37, BHIS): 0.41
- CD630_30990 fold change in LL-37 (2 µg/ml LL-37, BHIS): 0.40
- CD630_31000 fold change in LL-37 (2 µg/ml LL-37, BHIS): 0.36
- CD630_31150 (bglA4) fold change in LL-37 (2 µg/ml LL-37, BHIS): 0.37
- CD630_31360 (bglA7) fold change in LL-37 (2 µg/ml LL-37, BHIS): 0.35
- CD630_31370 (bglF5) fold change in LL-37 (2 µg/ml LL-37, BHIS): 0.39
- CD630_31750 (cggR) fold change in LL-37 (2 µg/ml LL-37, BHIS): 0.22
- CD630_32090 fold change in LL-37 (2 µg/ml LL-37, BHIS): 0.47
- CD630_32100 fold change in LL-37 (2 µg/ml LL-37, BHIS): 0.48
- CD630_32220 (sdaB) fold change in LL-37 (2 µg/ml LL-37, BHIS): 0.49
- CD630_32570 fold change in LL-37 (2 µg/ml LL-37, BHIS): 0.37
- CD630_32600 (phoU) fold change in LL-37 (2 µg/ml LL-37, BHIS): 0.49
- CD630_32620 (pstA) fold change in LL-37 (2 µg/ml LL-37, BHIS): 0.48
- CD630_33440 fold change in LL-37 (2 µg/ml LL-37, BHIS): 0.39
- CD630_33730 (mgtA) fold change in LL-37 (2 µg/ml LL-37, BHIS): 3.39
- CD630_33740 fold change in LL-37 (2 µg/ml LL-37, BHIS): 3.92
- CD630_33750 (mgtC) fold change in LL-37 (2 µg/ml LL-37, BHIS): 2.96
- CD630_33790 fold change in LL-37 (2 µg/ml LL-37, BHIS): 2.14
- CD630_33911 fold change in LL-37 (2 µg/ml LL-37, BHIS): 2.66
- CD630_35370 (phnH) fold change in LL-37 (2 µg/ml LL-37, BHIS): 0.39
- CD630_36010 fold change in LL-37 (2 µg/ml LL-37, BHIS): 0.35
- CD630_22290 fold change in LL-37 (2 µg/ml LL-37, BHIS (Table S5)): 0.51
- genes induced (sub-MIC LL-37, at least 2-fold, p < 0.05): 107 genes
- genes differentially expressed at least 2-fold (sub-MIC LL-37, p < 0.05): 228 genes
